Measured values taken from patent publication US4507297A, “Piperazine derivatives and a medicine containing the same” (priority 1981, dated 1985).
Counter-ions that a name gives are not always drawn. Like-named read-outs stand apart in the source and are kept apart here.

Tests used:
[1] = tested on: experimental myocardial infarction; assay: Effects against an experimental myocardial infarction (anterior descending artery ligation, necrotic area by planimetry); assay type: in vivo, rabbit; conditions: for inhibition in vivo at 200 mg/kg: read-out: Inhibition rates (%), T = 200 mg/kg, i.v.
Experimental: The chest wall of each animal was incised under artificial respiration, and the anterior descending artery was ligated (about 7 mm downward of the starting portion). 24 Hours later, the heart was taken out, and a myocardium between the cadiac apex and the ligated portion was sliced to have a thickness of 2 mm and stained to distinguish the infarction-affected portions by a phosphorylase reaction, whereupon the area of the necrotic portion was calculated by planimetory. Medicinal substances were administered 5 minutes prior to the ligation (T/2 mg/kg, i.v.), continuously from immediately after the ligation to one hour later (T/4 mg/kg/hr, by constant dropping), 2 hours after the ligation (T/8 mg/kg, i.v.) and 3 hours after the ligation (T/8 mg/kg, i.v.). Each medicinal substance was administered in the form of a physiological sodium chloride solution. Where the substance was hardly soluble, it was used in the form of a salt. To a control group was administered only a physiological sodium chloride solution. (T means a total amount of administration.)

[2] = tested on: mice; assay: in vivo; conditions: i.v., tail of mice
Experimental: (§1) Medicinal substances were administered intravenously from the tails of the mice.

[3] = in vivo; conditions: mouse, in vivo, iv, tail of mice
Experimental: as §1

[4] = Oryctolagus cuniculus, iv, 24 h, vs control 14.1 ± 1.0
[5] = T = 200 mg/kg, i.v., 8 cases, control 14.1 ± 1.0
[6] = Oryctolagus cuniculus, iv, 24 h, vs control 14.9 ± 0.7
[7] = T = 200 mg/kg, i.v., 8 cases, control 14.9 ± 0.7
[8] = Oryctolagus cuniculus, iv, 24 h, T = 40 mg/kg, i.v., vs control 14.1 ± 1.0, read-out: Inhibition rates (%)
[9] = T = 40 mg/kg, i.v., 8 cases, control 14.1 ± 1.0

SMILES: COc1ccc(CN2CCN(C(=O)[C@H](CC(C)C)NC(=O)[C@@H]3O[C@H]3C(=O)[O-])CC2)c(OC)c1OC.[Na+] [listing 1 of 2 here]
- inhibition in vivo at 200 mg/kg [1, 4]: 30.5%
- Necrotic area (mean ± S.E. %) [1, 5]: 9.8 ± 0.9%

SMILES: COc1ccc(CN2CCN(C(=O)[C@H](CC(C)C)NC(=O)[C@H]3O[C@@H]3C(=O)[O-])CC2)c(OC)c1OC.[Na+]
- inhibition in vivo at 200 mg/kg [1, 4]: 24.1%
- Necrotic area (mean ± S.E. %) [1, 5]: 10.7 ± 0.9%
- MLD (in column LD50 mice) [2]: > 1125 mg/kg

SMILES: CC(C)C[C@H](NC(=O)[C@@H]1O[C@H]1C(=O)[O-])C(=O)N1CCN(c2ncccn2)CC1.[Na+] [listing 1 of 2 here]
- inhibition in vivo at 200 mg/kg [1, 4]: 23%
- Necrotic area (mean ± S.E. %) [1, 5]: 11.1 ± 0.7%

SMILES: CC(C)C[C@H](NC(=O)[C@H]1O[C@@H]1C(=O)[O-])C(=O)N1CCN(c2ncccn2)CC1.[Na+]
- inhibition in vivo at 200 mg/kg [1, 4]: 26%
- Necrotic area (mean ± S.E. %) [1, 5]: 10.7 ± 0.4%
- MLD (in column LD50 mice) [2]: > 1125 mg/kg

SMILES: CC(C)C[C@H](NC(=O)[C@@H]1O[C@H]1C(=O)[O-])C(=O)N1CCN(Cc2ccccc2)CC1.[Na+]
- inhibition in vivo at 200 mg/kg [1, 6]: 20.1%
- Necrotic area (mean ± S.E. %) [1, 7]: 11.9 ± 0.6%
- MLD (in column LD50 mice) [2]: > 1125 mg/kg

SMILES: COc1ccc(CN2CCN(C(=O)[C@H](CC(C)C)NC(=O)[C@@H]3O[C@H]3C(=O)[O-])CC2)cc1.[Na+]
- inhibition in vivo at 200 mg/kg [1, 6]: 20.1%
- Necrotic area (mean ± S.E. %) [1, 7]: 11.9 ± 0.8%
- MLD (in column LD50 mice) [2]: > 1125 mg/kg

SMILES: COc1ccc(CN2CCN(C(=O)[C@H](CC(C)C)NC(=O)[C@@H]3O[C@H]3C(=O)[O-])CC2)c(OC)c1OC.[Na+] [listing 2 of 2 here]
- inhibition in vivo at 200 mg/kg [1, 6]: 29.5%
- Necrotic area (mean ± S.E. %) [1, 7]: 10.5 ± 0.9%
- MLD (in column LD50 mice) [2]: > 1125 mg/kg

SMILES: CCN1CCN(C(=O)[C@H](CC(C)C)NC(=O)[C@@H]2O[C@H]2C(=O)[O-])CC1.[Na+]
- inhibition in vivo at 200 mg/kg [1, 6]: 20.8%
- Necrotic area (mean ± S.E. %) [1, 7]: 11.8 ± 0.9%
- MLD (in column LD50 mice) [2]: > 1125 mg/kg

SMILES: CC(C)C[C@H](NC(=O)[C@@H]1O[C@H]1C(=O)[O-])C(=O)N1CCN(CC=Cc2ccccc2)CC1.[Na+]
- inhibition in vivo at 100 mg/kg ([1]; Oryctolagus cuniculus, iv, 24 h, read-out: Inhibition rates (%), T = 100 mg/kg, i.v., vs control 14.9 ± 0.7): 25.5%
- Necrotic area (mean ± S.E. %) ([1]; T = 100 mg/kg, i.v., 8 cases, control 14.9 ± 0.7): 11.1 ± 0.6%
- MLD (in column LD50 mice) [2]: 1000 to 1125 mg/kg

SMILES: CC(C)C[C@H](NC(=O)[C@@H]1O[C@H]1C(=O)[O-])C(=O)N1CCN(c2ccccn2)CC1.[Na+]
- inhibition in vivo at 200 mg/kg [1, 6]: 22.1%
- Necrotic area (mean ± S.E. %) [1, 7]: 11.6 ± 0.7%
- MLD (in column LD50 mice) [2]: > 1125 mg/kg

SMILES: CC(C)C[C@H](NC(=O)[C@@H]1O[C@H]1C(=O)[O-])C(=O)N1CCN(c2ncccn2)CC1.[Na+] [listing 2 of 2 here]
- inhibition in vivo at 200 mg/kg [1, 6]: 25.5%
- Necrotic area (mean ± S.E. %) [1, 7]: 11.1 ± 0.8%
- MLD (in column LD50 mice) [2]: > 1125 mg/kg

SMILES: COc1ccc(CCN(C)CCCC(C#N)(c2ccc(OC)c(OC)c2)C(C)C)cc1OC (racemic) [Verapanil hydrochloride, reference compound]
- inhibition in vivo at 2 mg/kg ([1]; Oryctolagus cuniculus, iv, 24 h, read-out: Inhibition rates (%), T = 2 mg/kg, i.v., vs control 14.6 ± 1.0): 24.7%
- Necrotic area (mean ± S.E. %) ([1]; T = 2 mg/kg, i.v., 7 cases (propranolol), 10 cases (verapanil), control 14.6 ± 1.0): 11.0 ± 1.3%

SMILES: CC(C)C[C@H](NC(=O)C1OC1C(=O)O)C(=O)N1CCN(C(c2ccccc2)c2ccccc2)CC1 (stereo partly drawn) [Compound 1]
- inhibition in vivo at 80 mg/kg ([1]; Oryctolagus cuniculus, iv, 24 h, T = 80 mg/kg, i.v., vs control 14.9 ± 0.7, read-out: Inhibition rates (%)): 24.8%
- Necrotic area (mean ± S.E. %) ([1]; T = 80 mg/kg, i.v., 8 cases, control 14.9 ± 0.7): 11.2 ± 0.5%
- LD50 [3]: 174 mg/kg

SMILES: COc1ccc(CN2CCN(C(=O)[C@H](CC(C)C)NC(=O)C3OC3C(=O)OCC(C)C)CC2)c(OC)c1OC (stereo partly drawn) [Compound 9, Isobutyl trans-3-[(s)-3-methyl-1-{4-(2,3,4-trimethoxyphenylmethyl)piperazine-1-ylcarbonyl}butylcarbamoyl]oxirane-2-carboxylate 1/2 sulfate]
- inhibition in vivo at 40 mg/kg [1, 8]: 18.4%
- Necrotic area (mean ± S.E. %) [1, 9]: 11.5 ± 1.2%
- LD50 [3]: 440 mg/kg

SMILES: CCOC(=O)C1OC1C(=O)N[C@@H](CC(C)C)C(=O)N1CCN(Cc2ccc(OC)c(OC)c2OC)CC1 (stereo partly drawn) [Compound 10, Ethyl trans-3-[(s)-3-methyl-1-{4-(2,3,4-trimethoxyphenylmethyl)piperazine-1-ylcarbonyl}butylcarbamoyl]oxirane-2-carboxylate 1/2 sulfate]
- inhibition in vivo at 40 mg/kg [1, 8]: 25.5%
- Necrotic area (mean ± S.E. %) [1, 9]: 10.5 ± 1.1%

SMILES: CCOC(=O)[C@@H]1O[C@H]1C(=O)N[C@@H](CC(C)C)C(=O)N1CCN(Cc2ccc(OC)c(OC)c2OC)CC1 [Compound 11, Ethyl (2R,3R)-3-[(s)-3-methyl-1-{4-(2,3,4-trimethoxyphenylmethyl)piperazine-1-ylcarbonyl}butylcarbamoyl]oxirane-2-carboxylate 1/2 sulfate]
- inhibition in vivo at 40 mg/kg [1, 8]: 29.1%
- Necrotic area (mean ± S.E. %) [1, 9]: 10.0 ± 1.0%
- LD50 [3]: 374 mg/kg

SMILES: CCOC(=O)[C@H]1O[C@@H]1C(=O)N[C@@H](CC(C)C)C(=O)N1CCN(Cc2ccc(OC)c(OC)c2OC)CC1 [Compound 12, Ethyl (2S,3S)-3-[(s)-3-methyl-1-{4-(2,3,4-trimethoxyphenylmethyl)piperazine-1-ylcarbonyl}butylcarbamoyl]oxirane-2-carboxylate 1/2 sulfate]
- inhibition in vivo at 40 mg/kg [1, 8]: 19.9%
- Necrotic area (mean ± S.E. %) [1, 9]: 11.3 ± 1.2%
- LD50 [3]: 345 mg/kg

SMILES: CC(C)NCC(O)COc1cccc2ccccc12 (stereo not drawn) [Propranolol hydrochloride, reference compound]
- inhibition in vivo at 1 mg/kg ([1]; Oryctolagus cuniculus, iv, 24 h, T = 1 mg/kg, i.v., vs control 14.6 ± 1.0, read-out: Inhibition rates (%)): 6.2%
- inhibition in vivo at 2 mg/kg ([1]; Oryctolagus cuniculus, iv, 24 h, T = 2 mg/kg, i.v., vs control 14.6 ± 1.0, read-out: Inhibition rates (%)): 23.3%
- inhibition in vivo at 4 mg/kg ([1]; Oryctolagus cuniculus, iv, 24 h, T = 4 mg/kg, i.v., vs control 14.6 ± 1.0, read-out: Inhibition rates (%)): 26.7%
- Necrotic area (mean ± S.E. %) ([1]; T = 1 mg/kg, i.v., 8 cases, control 14.6 ± 1.0): 13.7 ± 1.1%
